“Also recorded” adds a separate entry of the source.
Columns and labels:
[1] = system: MDA-MB 231 cells; assay: FACS analysis of CD44high CD24low CSC subpopulation, Basal/metastatic model; assay type: cell-based, human; conditions: NCD38 5 μM, FIGS. 7A and B
Protocol: (§1) Cells from each well/flask were harvested by means of trypsin treatment followed by two washes with PBS. Washed cells then re-suspended in an antibody cocktail consisting anti-CD44-APC, anti-CD24-PE antibodies (details in Table 5) and Hoechst 33258 dye (final dilution of 1:1000) (Invitrogen, Carlsbad, Calif.) in 1% FCS-PBS solution. Cells re-suspended in antibody cocktail were incubated for 20 minutes at 4° C. Cells were next washed twice with PBS and re-suspended in 1% FCS-PBS solution (volume based on cell number) and kept on ice until analyzed by FACS. Forward scatter (FSC) and side scatter parameters were selected with FITC fluorochrome excited by 488 nm argonion laser, PE fluorochrome excited by 488 nm and Hoechst fluorochrome excited by 350 nm helium-cadmium UV laser.
(§2) Flow Cytometry data was produced using either BD FACS LSR Flow Cytometer (Becton Dickinson Biosciences) or BD FACS Aria™ II Flow Cytometer (Becton Dickinson Biosciences) and analyzed using the data acquisition software CellQuest Pro (Becton Dickinson Biosciences) and FlowJo (Tree Star Inc., Ashland, Oreg.) software at the MCRF facility, JCSMR, ANU, Canberra, Australia. Single colour controls were used to set compensation parameters. Isotype controls were used for all corresponding primary antibodies in each experiment. […]

[2] = system: MCF-7 cells; assay: FACS analysis of CD44high CD24low CSC-like subpopulation, MCF-IM model (PMA-stimulated MCF-7); assay type: cell-based, human; conditions: NCD38 5 μM for 17 hr prior to PMA 0.65 ng/μl for 60 hours, FIGS. 6A and B
Protocol: MCF-7 cells were seeded one day before stimulation at a set density according to the experimental demand. Potential inducers of EMT were tested including Phorbol 12-Myristate 13-acetate (PMA) (Sigma-Aldrich, St. Louis, Mo.), and TGF β (R&D systems, Minneapolis, Minn.) at various concentrations and incubation length as specified in Table 6.
as §1, with “Forward scatter (FSC) and side scatter parameters were selected with FITC fluorochrome excited by 488 nm argonion laser, PE fluorochrome excited by 488 nm and Hoechst fluorochrome excited by 350 nm helium-cadmium UV laser.” left out
as §2, with “Australia.” for “Australia. Single colour controls were used to set compensation parameters. Isotype controls were used for all corresponding primary antibodies in each experiment.”

[3] = system: MCF-7 cells; assay: Mammosphere assay; assay type: cell-based, human; conditions: MCF-IM model, NCD38 5 μM for 17 hr prior to PMA 0.65 ng/ml for 6 days, mammospheres larger than 60 μm counted
Protocol: The following mammosphere culture media components were purchased from StemCell Technologies Inc., BC, Canada: Mammocult Basal medium (Human) (catalogue number-05621), Mammocult Proliferation Supplements (Human) (catalogue number-05622), heparin (catalogue number-07904) and hydrocortisone (catalogue number-[…]). Hydrocortisone powder was freshly dissolved into mammocult basal medium to get 10^−4M solution on the day of experiment. 50 mL of Mammocult complete media was then prepared by addition of 45 mL Mammocult basal medium, 5 mL mammocult proliferation supplements, 100 μL of the 0.2% heparin stock, 500 μL of 10^−4M stock of hydrocortisone and 50 μL of the PNS. Mammocult complete media was either used on same day or stored for not more than 7 days at 4° C.
MCF-7 cells were grown in a 175 cm^2 cell culture flask and harvested using a cell scraper (Zellschaber, Switzerland) or FACS sorted as specified below. Importantly trypsin treatment was never used for harvesting cells as it interferes with the mammosphere assay. Harvested cells were then re-suspended in 1 mL mammocult complete media and centrifuged at 500×g for 3 minutes at 20° C. The cell pellet was then re-suspended in 1 mL mammocult complete media before counting the cells on the Vi-CELL counter. […] Mammospheres larger than 60 μm were counted per well on day 7 and pictures were taken with an Olympus microscope. […]

[4] = system: MDA-MB 231 cells; assay: Phase contrast microscopy of EMT/MET, Basal/metastatic model; assay type: cell-based, human; conditions: NCD38 5 μM, FIG. 7C
Protocol: Phase contrast microscopy was utilized for EMT and wound healing assays under 10× or 20× magnification of Olympus Fluorescence 1×71 microscope. Images were captured and analyzed as described above except that wound healing assay pictures were also analyzed by Image J software (Free software in Public domain developed by NIH).

[5] = system: MDA-MB-231 cells; assay: In vivo murine xenograft model, CSC subpopulation of tumors (FACS, CD44 mRNA); parameters: species or system BALB/c female nude mice; conditions: pargyline along with docetaxel
Protocol: (§3) To monitor the effect of LSD1 inhibitors in vivo on tumor recurrence, in vivo murine xenograft model of breast cancer recurrence was used. The MDA-MB 231 cell line model, which is one of the most robust and well-established models was used in 6 weeks old BALB/c female nude mice. 5×10^6 MDA MB 231 cells were injected in the mammary fat pad of each mouse. […] Once the tumors reach 50 mm^3 volume size (determined by caliper measurement), treatments were initiated. Mice were monitored until tumors reach 500 mm^3 and sacrificed for collection of tumors. Each treatment group consisted 14 mice each (5 mice for tumor growth curve+3 mice each for tumor collection at 3 time points-treatment start day-week 0, chemotherapy tumor reduction-approx. week 4 and until tumor reach 500 mm^3 approx. week 7). Tumor volumes were measured every week and three mice from each group were sacrificed for IHC, FACS, and RNA extraction at above mentioned three time points.
At week 7 post treatment, the remaining tumor samples were collected for flow cytometry with CD44, CD24 and Hoechst staining. Remaining sample was used for RNA extraction.
1. Tumors were collected in 5 mL of DMEM supplemented with 2.5% FCS in 15 mL tubes.
8. A total number of 2×10^5 cells were stained for CD44-APC, CD24-PE and Hoechst. […]

[6] = system: MDA-MB-231 cells; assay: In vivo murine xenograft model, tumor size; parameters: species or system BALB/c female nude mice
Protocol: as §3
5. Mice were then injected with 50 μL of the Matrigel™+5×10^6 cell suspension in PBS using 26″ needles and isoflurane as an anesthetic. Each 50 μL of the mixture contains 2×10^6 MDA-MB-231 cells.
7. Measurements for tumor volume began at day 7 post injection of MDA-MB-231. Then the tumor volumes were measured daily till 15 May 2014.
Treatment of mice started at day 16 post injection of MDA-MB-231, where tumors roughly reached a volume of 50 mm^3.
Group B: 4 mg/kg of docetaxel (11 mice)
Group C: 100 mg/kg of pargyline (11 mice)
Group D: 4 mg/kg of docetaxel+100 mg/kg of pargyline (11 mice)

SMILES | CSC formation (CD44high CD24low CSC-like subpopulation) by FACS [1] | CSC formation (CD44high CD24low CSC-like subpopulation) by FACS ([1]; listed as NCD-38) | CSC formation (CD44high CD24low CSC-like subpopulation) monitored by FACS [2] | CSC formation (CD44high CD24low CSC-like subpopulation) monitored by FACS ([2]; listed as NCD-38) | CSC formation monitored by mammosphere assay [3] | CSC formation monitored by mammosphere assay ([3]; listed as NCD-38) | mesenchymal to epithelial transition / EMT (phase contrast microscopy) [4] | mesenchymal to epithelial transition / EMT (phase contrast microscopy) ([4]; listed as NCD-38) | CSC subpopulation measured by transcript (CD44 mRNA expression of dissected tumors) ([5]; real-time PCR, FIG. 10B) | CSC subpopulation of tumors measured by FACS ([5]; seven weeks of treatment, FIG. 10A) | tumor size ([6]; pargyline 100 mg/kg in combination with docetaxel 4 mg/kg, mice xenograft, FIG. 8 (week four), FIG. 9) | tumor volume ([6]; pargyline in combination with docetaxel, after seven weeks of treatment initiation, FIG. 9B) | tumor weight ([6]; pargyline in combination with docetaxel, after seven weeks of treatment, FIG. 9A)
O=C(N[C@@H](CCCCN[C@@H]1C[C@H]1c1ccccc1)C(=O)NCc1cccc(Cl)c1)c1ccc(-c2ccccc2)cc1.O=C(O)C(F)(F)F [NCD38] | inhibits CD44 high CD24 low-CSC-like subpopulation | decrease of CSC formation | inhibits CD44 high CD24 low-CSC-like subpopulation | inhibition CSC formation | reduce mammosphere formation | inhibition CSC formation | inhibit EMT | conversion of mesenchymal cells in to epithelial cells | – | – | – | – | –
C#CCN(C)Cc1ccccc1 [pargyline] | – | – | – | – | – | – | – | – | reduced CSC subpopulation | reduced CSC subpopulation; also recorded: reduces cancer stem cells | reduced tumor size; also recorded: reduces size of tumor | reduces volume and weight of tumor | reduces volume and weight of tumor

From patent US10220053B2, “Methods and compositions for modulating cancer stem cells” (University of Canberra, priority 2013, dated 2019)
